Experimental data from patent US20220174947A1, “ANTIMICROBIAL MIXTURE CONTAINING 4-(3-ETHOXY-4-HYDROXYPHENYL)BUTAN-2-ONE AND AN ALCOHOL COMPOUND, AND COSMETIC COMPOSITION CONTAINING SAME” (L'OREAL, priority 2018, published 2022).

What was measured:
[1] = tested on: Pseudomonas aeruginosa ATCC 9027; test: Synergistic antimicrobial activity as MIC, 96-well microplate, optical density at 620 nm; type: cell-based; conditions: for % MIC of A alone: Pseudomonas aeruginosa, growth <= 25%
Source text: with: • MIC of A with B: minimum concentration of product A in the combination A+B which makes it possible to obtain an inhibitory effect; • MIC of B with A: minimum concentration of product B in the combination A+B which makes it possible to obtain an inhibitory effect; • MIC of A: minimum inhibitory concentration of product A alone; • MIC of B: minimum inhibitory concentration of product B alone. This formula was described for the first time in the article by F. C. Kull, […], and R. L. Mayer, Applied Microbiology 9:538-541, 1961. […] When the FIC index value is less than or equal to 1, it is considered that the combination of test compounds has a synergistic effect. The microbial strain Pseudomonas aeruginosa ATCC 9027 and a double-concentration nutrient broth liquid culture medium were used. A 96-well microplate at an incubation temperature of 32.5° C. is used. […] For each compound: […] 50 μl of each of the daughter solutions obtained containing compound A and 50 μl of each of the daughter solutions obtained containing compound B are added to the microplate wells. 100 μl of Sabouraud liquid nutrient broth inoculated at double concentration with the strain Aspergillus niger are also added thereto. A positive microbial growth control was also prepared. […] An absorbance control was performed in parallel on compounds A and B alone. This control corresponds to 100 μl of double concentration sterile Sabouraud liquid nutrient broth+100 μl of double concentration compound A or B. […] The test as described above (tests, absorbance control and growth control) was performed again to test the combination A+B on the following strains Enterococcus faecalis, Staphylococcus aureus, Pseudomonas aeruginosa, Candida albicans, where appropriate.

[2] = tested on: Enterococcus faecalis ATCC 33186; test: as above; type: cell-based; conditions: for % MIC of A alone: Enterococcus faecalis, growth <= 25%
Source text: FIC Index=(MIC of A with B/MIC of A)+(MIC of B with A/MIC of B [Math. 1]
with: • MIC of A with B: minimum concentration of product A in the combination A+B which makes it possible to obtain an inhibitory effect; • MIC of B with A: minimum concentration of product B in the combination A+B which makes it possible to obtain an inhibitory effect; • MIC of A: minimum inhibitory concentration of product A alone; • MIC of B: minimum inhibitory concentration of product B alone. This formula was described for the first time in the article by F. C. Kull, P. C. Eisman, H. D. Sylwestrowka, and R. L. Mayer, Applied Microbiology 9:538-541, 1961.
The microbial strain Enterococcus faecalis ATCC 33186 and a double-concentration BHI (Brain Heart Infusion) broth liquid culture medium were used.
A 96-well microplate at an incubation temperature of 32.5° C. is used.
The incubation time of the microplate is: • from 24 to 30 h under aerobic conditions for microbial Aspergillus niger ATCC 6275; • from 18 to 24 h under aerobic conditions for Candida albicans ATCC 10231, Pseudomonas aeruginosa ATCC 9027 and Staphylococcus aureus ATCC 6538; • from 24 to 48 h under aerobic conditions for Enterococcus faecalis ATCC 33186.
For each compound: A=4-(3-ethoxy-4-hydroxyphenyl) butan-2-one compound B=alcohol compound A 10% (weight/volume) stock solution was prepared by mixing 1 g of compound in 9 ml of aqueous 1% agar solution. Successive dilutions were made with the 1% agar solution.
50 μl of each of the daughter solutions obtained containing compound A or B are added to the microplate wells. 100 μl of Sabouraud liquid nutrient broth inoculated at double concentration with the Aspergillus niger strain and 50 μl of aqueous 1% agar solution are also added thereto.
50 μl of each of the daughter solutions obtained containing compound A and 50 μl of each of the daughter solutions obtained containing compound B are added to the microplate wells. 100 μl of Sabouraud liquid nutrient broth inoculated at double concentration with the strain Aspergillus niger are also added thereto.
A positive microbial growth control was also prepared. The positive microbial growth control corresponds to a mixture of 100 μl of aqueous 1% agar solution with 100 μl of Sabouraud liquid nutrient broth inoculated at double concentration with the strain Aspergillus niger in the absence of compounds A and B.
An absorbance control was performed in parallel on compounds A and B alone. This control corresponds to 100 μl of double concentration sterile Sabouraud liquid nutrient broth+100 μl of double concentration compound A or B.
In the three cases (absorbance control, growth control and test), the final volume present in each of the microplate wells is 200 μl.
The test as described above (tests, absorbance control and growth control) was performed again to test the combination A+B on the following strains Enterococcus faecalis, Staphylococcus aureus, Pseudomonas aeruginosa, Candida albicans, where appropriate.

`CCOc1cc(CCC(C)=O)ccc1O` [A, 4-(3-ethoxy-4-hydroxyphenyl)butan-2-one] was tested, and the microbial growth percentage ([1]; 0.0625 A, 0 B4 weight %) was 63%, the microbial growth percentage ([1]; 0.0625 A, 0 B6 weight %) was 80% and the microbial growth percentage ([1]; 0.125 A, 0 B4 weight %) was 60%. It also gave a microbial growth percentage ([1]; 0.125 A, 0 B6 weight %) of 63%, a microbial growth percentage ([1]; 0.25 A, 0 B4 weight %) of 64% and a microbial growth percentage ([1]; 0.25 A, 0 B6 weight %) of 56%. For the same molecule, the microbial growth percentage ([1]; 0.5 A, 0 B4 weight %) was 62%, the microbial growth percentage ([1]; 0.5 A, 0 B6 weight %) was 61% and the microbial growth percentage ([1]; 1 A, 0 B4 weight %) was 7%. For the same molecule, the microbial growth percentage ([1]; 1 A, 0 B6 weight %) was −17%, the “% MIC of A alone” value ([1]; Example 4) was 1% and the “% MIC of A alone” value ([1]; Example 6) was 1%. It also gave a microbial growth percentage ([2]; 0.0625 A, 0 B3 weight %) of 70%, a microbial growth percentage ([2]; 0.0625 A, 0 B4 weight %) of 44% and a microbial growth percentage ([2]; 0.0625 A, 0 B6 weight %) of 35%. For the same molecule, the microbial growth percentage ([2]; 0.125 A, 0 B3 weight %) was 31%, the microbial growth percentage ([2]; 0.125 A, 0 B4 weight %) was 39% and the microbial growth percentage ([2]; 0.125 A, 0 B6 weight %) was 43%. It also gave a microbial growth percentage ([2]; 0.25 A, 0 B3 weight %) of 27%, a microbial growth percentage ([2]; 0.25 A, 0 B4 weight %) of 38% and a microbial growth percentage ([2]; 0.25 A, 0 B6 weight %) of 34%. For the same molecule, the microbial growth percentage ([2]; 0.5 A, 0 B3 weight %) was 14%, the microbial growth percentage ([2]; 0.5 A, 0 B4 weight %) was 12% and the microbial growth percentage ([2]; 0.5 A, 0 B6 weight %) was 0%. For the same molecule, the “% MIC of A alone” value ([2]; Example 3) was 0.5%, the “% MIC of A alone” value ([2]; Example 4) was 0.5% and the “% MIC of A alone” value ([2]; Example 6) was 0.5%.
